Measurements reported in patent publication US20150266850A1 (E.I.DU PONT DE NEMOURS AND COMPANY, priority 2012, published 2015).
Marks after values point to notes of the source that are not given here.

Columns and labels:
Type in all cases: in vivo
[1] = tested on: Erysiphe graminis f. sp. tritici; assay: Test A: wheat powdery mildew, preventive spray on wheat seedlings, visual disease rating; conditions: 100 = 100% disease control; for pest or weed control at 50 ppm / pest or weed control at 40 ppm: Blumeria graminis, 192 h
Excerpt: (§1) General protocol for preparing test suspensions for Tests A-E: the test compounds were first dissolved in acetone in an amount equal to 11% of the final volume and then suspended at the desired concentration (in ppm) in acetone and purified water (50/50 mix by volume) containing 250 ppm of the surfactant Trem® 014 (polyhydric alcohol esters). The resulting test suspensions were then used in Tests A-E. Spraying a 200 ppm test suspension to the point of run-off on the test plants was the equivalent of a rate of 800 g/ha.
The test suspension was sprayed to the point of run-off on wheat seedlings. The following day the seedlings were inoculated with a spore dust of Erysiphe graminis f. sp. tritici, (the causal agent of wheat powdery mildew) and incubated in a growth chamber at 20° C. for 8 days, after which time disease ratings were visually made.
(§2) Results for Tests A-E are given in Table A. In the Table, a rating of 100 indicates 100% disease control and a rating of 0 indicates no disease control (relative to the controls). A dash (-) indicates no test results. All results are for 200 ppm except where followed by an “*”, which indicates 40 ppm or “**”, which indicates 50 ppm.

[2] = tested on: Puccinia recondita f sp. tritici; assay: Test B: wheat leaf rust, preventive spray on wheat seedlings, visual disease rating; conditions: 100 = 100% disease control; for pest or weed control at 50 ppm / pest or weed control at 40 ppm: 192 h
Excerpt: as §1
The test suspension was sprayed to the point of run-off on wheat seedlings. The following day the seedlings were inoculated with a spore suspension of Puccinia recondita f sp. tritici (the causal agent of wheat leaf rust) and incubated in a saturated atmosphere at 20° C. for 24 h, and then moved to a growth chamber at 20° C. for 7 days, after which time disease ratings were visually made.
as §2

Septoria tritici = assay: Test C: wheat leaf blotch, preventive spray on wheat seedlings, visual disease rating; conditions: 100 = 100% disease control; for pest or weed control at 40 ppm: Zymoseptoria tritici, 504 h
Excerpt: as §1
(§3) The test suspension was sprayed to the point of run-off on wheat seedlings. The following day the seedlings were inoculated with a spore suspension of Septoria tritici (the causal agent of wheat leaf blotch) and incubated in a saturated atmosphere at 24° C. for 48 h, and then moved to a growth chamber at 20° C. for 19 days, after which time disease ratings were visually made.
as §2

Septoria nodorum = assay: Test D: wheat glume blotch, preventive spray on wheat seedlings, visual disease rating; conditions: 100 = 100% disease control; for pest or weed control at 50 ppm / pest or weed control at 40 ppm: Parastagonospora nodorum, 216 h
Excerpt: as §1
as §3, with “nodorum” for “tritici”, “glume” for “leaf”, “20°” for “24°”, “7” for “19”
as §2

| Compound | Test A disease control rating ([1]; 40 ppm (*)) | Test B disease control rating ([2]; 40 ppm (*)) | Test C disease control rating (Septoria tritici; 40 ppm (*)) | Test D disease control rating (Septoria nodorum; 40 ppm (*)) | also measured |
| --- | --- | --- | --- | --- | --- |
| COC(=O)NCc1cc(-c2ccn(-c3ccc(OC4CCCCC4)cc3C)n2)ccc1C [Cmpd 122] | 87* % | 91* % | – | – | – |
| CCOc1ccc(-c2ccn(-c3ccc(C)c(CNC(=O)OC)c3)n2)c(F)c1 [Cmpd 137] | 100* % | 100* % | 97* % | 100* % | – |
| CCOc1ccc(-n2ccc(-c3ccc(C)c(CNC(=O)OC)c3)n2)c(C)c1 [Cmpd 120] | – | – | – | – | Test A disease control rating ([1]; 50 ppm (**)): 100** %; Test C disease control rating (Septoria tritici; 50 ppm (**)): 99** %; Test B disease control rating ([2]; 50 ppm (**)): 100** % |
| C=Cc1ccc(-c2ccn(-c3ccc(C)c(CNC(=O)OC)c3)n2)c(C)c1 [Cmpd 113] | 40* % | 99* % | 74* % | 100* % | – |
| COCCOc1ccc(-n2ccc(-c3ccc(C)c(CNC(=O)OC)c3)n2)c(C)c1 [Cmpd 126] | 87* % | 100* % | – | – | – |
| methyl N-[[5-[1-(2,6-dimethoxy-3-pyridinyl)-1H-pyrazol-3-yl]-2-methylphenyl]-methyl]carbamate [Compound 116] | – | – | – | – | Test A disease control rating ([1]; 50 ppm (**)): 100** %; Test C disease control rating (Septoria tritici; 50 ppm (**)): 99** %; Test B disease control rating ([2]; 50 ppm (**)): 100** % |
| COC(=O)NCc1cc(-n2ncc(-c3ccc(OC)cc3Br)n2)ccc1C [Cmpd 143] | 99* % | 100* % | 99* % | 100* % | – |
| COC(=O)NCc1cc(-n2ccc(-c3ccc(C)cc3Br)n2)ccc1C [Cmpd 127] | 100* % | 100* % | 93* % | 100* % | – |
| COC(=O)NCc1cc(-c2ccn(-c3ccc(OCC(C)C)cc3C)n2)ccc1C [Cmpd 134] | – | – | – | – | Test A disease control rating ([1]; 50 ppm (**)): 99** %; Test B disease control rating ([2]; 50 ppm (**)): 100** %; Test D disease control rating (Septoria nodorum; 50 ppm (**)): 100** % |
| CCOc1cc(C)ccc1-c1ccn(-c2ccc(C)c(CNC(=O)OC)c2)n1 [Cmpd 138] | 99* % | 100* % | 95* % | 100* % | – |
| methyl N-[[5-[3-(6-methoxy-2-methyl-3-pyridinyl)-1H-pyrazol-1-yl]-2-methylphenyl]methyl]carbamate [Compound 115] | 100* % | 100* % | 99* % | 100* % | – |
| CCOc1ccc(-c2cnn(-c3ccc(C)c(CNC(=O)OC)c3)n2)c(C)c1 [Cmpd 107] | 99* % | 100* % | 99* % | 100* % | – |
| COC(=O)NCc1cc(-n2ncc(-c3ccc(OC)nc3OC)n2)ccc1C [Compound 136, methyl N-[[5-[4-(2,6-dimethoxy-3-pyridinyl)-2H-1,2,3-triazol-2-yl]-2-methylphenyl]methyl]carbamate] | – | – | – | – | pest or weed control at 50 ppm ([1]; 50 ppm (**)): 99%; pest or weed control at 50 ppm ([2]; 50 ppm (**)): 100%; pest or weed control at 50 ppm (Septoria nodorum; 50 ppm (**)): 100% |
| COC(=O)NCc1cc(-c2ccn(-c3ccc(C)nc3C)n2)ccc1C [Compound 114, methyl N-[[5-[1-(2,6-dimethyl-3-pyridinyl)-1H-pyrazol-3-yl]-2-methylphenyl]methyl]carbamate] | – | – | – | – | pest or weed control at 40 ppm ([1]; 40 ppm (*)): 90%; pest or weed control at 40 ppm (Septoria tritici; 40 ppm (*)): 86%; pest or weed control at 40 ppm ([2]; 40 ppm (*)): 100%; pest or weed control at 40 ppm (Septoria nodorum; 40 ppm (*)): 100% |
| COC(=O)NCc1cc(-n2ccc(-c3ccc(C(F)(F)F)cc3OC)n2)ccc1C [Cmpd 101] | 99* % | 100* % | 94* % | 100* % | – |
| COC(=O)NCc1cc(-c2ccn(-c3ccc(OC(F)(F)F)cc3C)n2)ccc1C [Compound 123, methyl N-[[2-methyl-5-[1-[2-methyl-4-(trifluoromethoxy)phenyl]-1H-pyrazol-3-yl]phenyl]methyl]carbamate] | – | – | – | – | pest or weed control at 40 ppm ([1]; 40 ppm (*)): 99%; pest or weed control at 40 ppm ([2]; 40 ppm (*)): 100% |
| COC(=O)NCc1cc(-n2ccc(-c3ccc(C(C)=O)cc3C)n2)ccc1C [Cmpd 140] | 91* % | 100* % | 94* % | 100* % | – |

| Compound | Test A disease control rating ([1]; 40 ppm (*)) | Test B disease control rating ([2]; 40 ppm (*)) | Test C disease control rating (Septoria tritici; 40 ppm (*)) | Test D disease control rating (Septoria nodorum; 40 ppm (*)) | also measured |
| --- | --- | --- | --- | --- | --- |
| CCOc1ccc(-c2ccn(-c3ccc(C)c(CNC(=O)OC)c3)n2)c(C)n1 [Cmpd 142] | 99* % | 100* % | 99* % | 100* % | – |
| COC(=O)NCc1cc(-n2ncc(-c3ccc(OC)nc3OC)[n+]2[O-])ccc1C [Compound 135] | – | – | – | – | pest or weed control at 50 ppm ([1]; 50 ppm (**)): 99%; pest or weed control at 50 ppm ([2]; 50 ppm (**)): 100%; pest or weed control at 50 ppm (Septoria nodorum; 50 ppm (**)): 100% |
| COC(=O)NCc1cc(-n2ccc(-c3ccc(Br)cc3C)n2)ccc1C [Cmpd 102] | 99* % | 100* % | 98* % | 100* % | – |
| CCCOc1ccc(-n2ccc(-c3ccc(C)c(CNC(=O)OC)c3)n2)c(C)c1 [Cmpd 125] | 98* % | 100* % | – | – | – |
| COC(=O)NCc1cc(-n2ncc(-c3ccc(OCC#N)cc3C)n2)ccc1C [Cmpd 105] | 90* % | 99* % | 86* % | 100* % | – |
| CCOc1ccc(-c2ccn(-c3ccc(C)c(CNC(=O)OC)c3)n2)c(C)c1 [Cmpd 128] | 99* % | 100* % | 98* % | 100* % | – |
| C#Cc1ccc(-c2ccn(-c3ccc(C)c(CNC(=O)OC)c3)n2)c(C)c1 [Cmpd 112] | 100* % | 100* % | 97* % | 100* % | – |
| COC(=O)NCc1cc(-n2ccc(-c3ccc(C(F)(F)F)cc3C)n2)ccc1C [Cmpd 100] | 99* % | 100* % | 97* % | 100* % | – |
| COC(=O)NCc1cc(-n2ncc(-c3ccc(C(F)(F)F)cc3C(F)(F)F)n2)ccc1C [Cmpd 132] | – | – | – | – | Test A disease control rating ([1]; 50 ppm (**)): 100** %; Test B disease control rating ([2]; 50 ppm (**)): 99** %; Test D disease control rating (Septoria nodorum; 50 ppm (**)): 100** % |
| COC(=O)NCc1cc(-c2ccn(-c3ccc(C(C)(C)C)cc3C)n2)ccc1C [Cmpd 124] | 99* % | 100* % | – | – | – |
| C#CCOc1ccc(-c2cnn(-c3ccc(C)c(CNC(=O)OC)c3)n2)c(C)c1 [Cmpd 106] | 99* % | 100* % | 98* % | 100* % | – |
| COC(=O)NCc1cc(-n2ccc(-c3ccc(C)nc3OC)n2)ccc1C [Cmpd 131] | 99* % | 100* % | 97* % | 100* % | – |
| COC(=O)NCc1cc(-n2ccc(-c3ccc(C)nc3C)n2)ccc1C [Compound 130, methyl N-[[5-[3-(2,6-dimethyl-3-pyridinyl)-1H-pyrazol-1-yl]-2-methylphenyl]methyl]carbamate] | – | – | – | – | pest or weed control at 40 ppm ([1]; 40 ppm (*)): 96%; pest or weed control at 40 ppm (Septoria tritici; 40 ppm (*)): 86%; pest or weed control at 40 ppm ([2]; 40 ppm (*)): 99%; pest or weed control at 40 ppm (Septoria nodorum; 40 ppm (*)): 100% |
| CCOc1cc(F)ccc1-c1ccn(-c2ccc(C)c(CNC(=O)OC)c2)n1 [Cmpd 129] | 98* % | 100* % | 68* % | 100* % | – |
| COC(=O)NCc1cc(-c2ccn(-c3ccc(OC(C)C)cc3C)n2)ccc1C [Cmpd 121] | – | – | – | – | Test A disease control rating ([1]; 50 ppm (**)): 100** %; Test C disease control rating (Septoria tritici; 50 ppm (**)): 98** %; Test B disease control rating ([2]; 50 ppm (**)): 100** % |
| COC(=O)NCc1cc(-c2ccn(-c3ccc(C(C)C)cc3C)n2)ccc1C [Cmpd 133] | – | – | – | – | Test A disease control rating ([1]; 50 ppm (**)): 100** %; Test B disease control rating ([2]; 50 ppm (**)): 100** %; Test D disease control rating (Septoria nodorum; 50 ppm (**)): 100** % |
